Experiments:
[1] = target: T1, M2_G15 fusion protein (M2 muscarinic receptor fused with the G15 G-protein alpha-subunit) (Homo sapiens, UniProt P08172); assay: agonist-stimulated […]GTPγS binding, membranes; type: biochemical; parameters: gene CHRM2; clone #3, except KA from all five clones
T1 sequence (P08172 1-466): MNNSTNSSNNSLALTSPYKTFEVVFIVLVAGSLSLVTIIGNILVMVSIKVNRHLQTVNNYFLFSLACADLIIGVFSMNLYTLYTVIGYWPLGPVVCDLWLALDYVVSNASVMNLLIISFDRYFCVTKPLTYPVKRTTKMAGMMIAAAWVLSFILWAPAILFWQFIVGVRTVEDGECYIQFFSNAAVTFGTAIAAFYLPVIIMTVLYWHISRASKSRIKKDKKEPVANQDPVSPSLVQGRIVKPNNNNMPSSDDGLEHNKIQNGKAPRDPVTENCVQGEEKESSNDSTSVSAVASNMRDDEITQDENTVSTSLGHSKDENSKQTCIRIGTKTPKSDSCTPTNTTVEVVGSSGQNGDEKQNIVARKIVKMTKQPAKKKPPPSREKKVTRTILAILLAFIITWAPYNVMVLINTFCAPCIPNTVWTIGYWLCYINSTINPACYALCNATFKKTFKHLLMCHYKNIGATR
T1 sequence (P30679 1-374 partner): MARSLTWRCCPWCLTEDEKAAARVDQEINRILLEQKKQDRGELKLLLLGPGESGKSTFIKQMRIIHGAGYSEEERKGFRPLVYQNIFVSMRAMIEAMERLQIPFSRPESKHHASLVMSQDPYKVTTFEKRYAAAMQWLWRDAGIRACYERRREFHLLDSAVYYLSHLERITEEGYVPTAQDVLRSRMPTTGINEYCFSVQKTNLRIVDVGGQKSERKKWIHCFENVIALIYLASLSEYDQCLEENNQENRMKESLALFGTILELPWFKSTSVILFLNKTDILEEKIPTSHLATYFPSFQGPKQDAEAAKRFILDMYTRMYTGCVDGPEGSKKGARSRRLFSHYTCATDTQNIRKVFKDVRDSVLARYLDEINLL

[2] = target: T2, M4_G15 fusion protein (M4 muscarinic receptor fused with the G15 G-protein alpha-subunit) (Homo sapiens, UniProt P08173); assay: biochemical; parameters: gene CHRM4
T2 sequence (P08173 1-479): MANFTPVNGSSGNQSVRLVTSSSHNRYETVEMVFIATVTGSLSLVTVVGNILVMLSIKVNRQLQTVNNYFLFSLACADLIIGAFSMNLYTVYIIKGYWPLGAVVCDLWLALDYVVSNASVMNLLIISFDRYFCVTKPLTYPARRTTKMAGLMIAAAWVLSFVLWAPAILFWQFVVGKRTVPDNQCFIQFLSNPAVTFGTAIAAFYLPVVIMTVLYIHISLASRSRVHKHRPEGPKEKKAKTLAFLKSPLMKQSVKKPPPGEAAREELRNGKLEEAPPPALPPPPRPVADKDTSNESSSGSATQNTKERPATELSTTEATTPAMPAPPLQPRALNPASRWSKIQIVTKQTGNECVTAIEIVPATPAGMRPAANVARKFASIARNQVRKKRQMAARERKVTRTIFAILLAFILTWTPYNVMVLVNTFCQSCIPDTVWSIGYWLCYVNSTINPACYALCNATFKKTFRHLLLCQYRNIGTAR
T2 sequence (P30679 1-374 partner): T1 sequence (P30679 1-374 partner)

[3] = target: T1, M2_G15 fusion protein (M2 muscarinic receptor fused with the G15 G-protein alpha-subunit); assay: biochemical; parameters: gene CHRM2
[4] = target: T2, M4_G15 fusion protein (M4 muscarinic receptor fused with the G15 G-protein alpha-subunit); assay: agonist-stimulated […]GTPγS binding, membranes; type: biochemical; parameters: gene CHRM4; M4 fused via ARATR linker to N-terminus of G15 alpha-subunit (one fused chain); clone #3, except KA from all five clones

SMILES | pEC50 ([1]; clone #[…], agonist; […] […]GTPγS, […] GDP, […] MgCl2, […] °C) | EC50 [1] [nM] | Ki [2] [nM] | Ki [3] [nM] | EC50 [4] [nM]
Clc1ccc2c(c1)N=C(N1CCNCC1)c1ccccc1N2 [NDMC] | 6.84 ± 0.03 | – | – | – | –
O=C1CCCN1CC#CCN1CCCC1 [oxotremorine] | – | 18.6 | 1480 | 1660 | 17

Source: paper PMC6420642, “Applications and limitations of fitting of the operational model to determine relative efficacies of agonists” (Scientific Reports, 2019)
